# According to patent US8846044B2, “Stabilizing alkylglycoside compositions and methods thereof” (Aegis Therapeutics, LLC, priority 2006, dated 2014):
# Where two headings read alike, the source gives them in different places.
# B1: Betaseron®: beta interferon 1b, Lot number YA0549A (protein, UniProt P01574 22-187, looked up, variant C17S)
# Interferon beta: MSYNLLGFLQRSSNFQSQKLLWQLNGRLEYCLKDRMNFDIPEEIKQLQQFQKEDAALTIYEMLQNIFAIFRQDSSSTGWNETIVENLLANVYHQINHLKTVLEEKLEKEDFTRGKLMSSLHLKRYYGRILHYLKAKEYSHCAWTIVRVEILRNFYFINRLTGYLRN
# modifications: interferon beta-1b, lacks N-terminal Met
# Key:
# [1] = in water; cited from earlier work
# nasal mucosa = settings: cited from earlier work
# isolated nasal cilia = settings: cited from earlier work
# envelop (gp120) binding = settings: 1987 report; cited from earlier work
# [2] = DAPTA fibril formation in solution (EM, FTIR, CD, dye binding); format: physicochemical; settings: for Time to form aggregates: distilled water, 10 mg/ml
# Experimental: Preparation of DAPTA solutions. DAPTA was dissolved in water, and solutions maintained at various temperatures and times. To prepare fibrils, DAPTA was prepared at 10 mgs/mL in water and stored overnight at 4° C.
# Determining fibril formation.
# Congo red was dissolved in PBS (5 mM potassium phosphate, 150 mM NaCl, pH 7.4) to a concentration of 7 ug/mL. The solution was chilled to 4° C., and DAPTA added as a 10 mg/mL stock solution in water, to yield final peptide concentration in the dye solution of 0.48 mg/mL. Peptide solution immediately after dissolution of powder was compared with an aged stock solution containing aggregated peptides. Spectra were collected between 400-700 nm, at 4° C.
# Fibril formation of peptide T or analog thereof can also be determined using Circular Dichroism (CD) spectroscopy. Ten mg/mL solutions in water of either freshly prepared peptide or containing fibrillar aggregates was added to distilled water at 4° C. to a concentration of 50 ug/mL. CD spectra were collected on a Jasco model J-810 spectrometer using a 0.1 cm path length quartz cuvette, between 190-250 nm, with a […] interval, and a response time of 2 sec.
# Still another method of determining fibril formation of peptide T or analog thereof is performed using Fourier Transform Infrared (FTIR) Spectroscopy. DAPTA was dissolved in deuterated water, to a concentration of 10 mg/ml and incubated under temp and time conditions that promote fibril formation. 25 ul samples were then placed in a pre-cooled transmission cell with NaCl windows separated by a 6 um spacer. FTIR spectra were collected on a BioRad FTS-175C Fourier transform spectrometer in transmission mode using a DTGS detector. 2506 interferograms were recorded with a 2 cm-1 resolution. Water vapor was subtracted and the spectra baselines corrected.
# HIV BaL [3] = format: cell-based, HIV-1; settings: dried
# Experimental: Inhibition of HIV infection is studied by utilizing an infection assay in which GHOST CD4 CCR5 cells are infected with HIV BaL, an R5 tropic isolate (Ruff, M R et al., 2001). Infection is detected via viral induction of the hGFP gene (green fluorescent protein) 48 hrs post-infection. Trays are measured in a plate reader to determine fluorescence intensity. All infections are performed by adding fresh culture medium containing approximately 1,000 infectious units of HIV-1 per well (96-well plates). […]
# The peptide was dissolved in the indicated concentration of TFE in water and then shaken or agitated for 24 hrs at 37° C. The peptide was subsequently dried down, and the TFE/water mixture removed under vacuum. […] Although TFE is removed, residual traces of TFE within acceptable range for human consumption may remain.
# Inhibition of HIV infection was studied by utilizing an infection assay using GHOST CD4 as previously described by Ruff, M R et al., 2001. CCR5 cells are infected with HIV BaL, an R5 tropic isolate. Infection is detected via viral induction of the hGFP gene (green fluorescent protein) about 48 hours post-infection. Trays were measured in a plate reader to determine fluorescence intensity. All infections were performed by adding fresh culture medium containing approximately 1,000 infectious units of HIV-1 per well (96-well plates).
# Again, the peptide was then evaporated or dried down, and resuspended in an aqueous solution, e.g., water for about three days, and tested for anti-HIV activity, as above.
# HIV BaL [4] = format: cell-based, HIV-1; settings: dried, in water about three days
# people with AIDS = settings: cited from earlier work; for Patients with improved neuro-psychological performance: early AIDS dementia (Kosten et al., 1997)
# HIV = assay: Inhibition of HIV infectivity in vitro by stored DAPTA solutions; format: cell-based
# Experimental: Aggregation is discovered to be associated with a loss of biological activity in vitro. Typically, the recommended protocol is to have DAPTA stored at 0.1 mM solutions in water at 4° C.
# Aggregation is reduced in the presence of trifluoroethanol (TFE). TFE was selected because of its property of reducing certain types of protein-protein interactions. DAPTA was dissolved in either distilled water, or solutions containing between 60% and 100% TFE. Aggregation was evaluated by assaying inhibition of HIV infectivity, in vitro. […] Also, TFE is capable of disassociating preformed aggregates of DAPTA. Aggregates of DAPTA, formed in distilled water were disrupted by addition of TFE to 80%, as measured by EM.
# [5] = Light scatter of beta interferons, Pramlintide and calcitonin with and without dodecyl maltoside; settings: 37° C., 150 RPM, 38 day test period
molecule,measurement,setting,value
CCCCCCCCCCCCO[C@@H]1O[C@H](CO)[C@@H](O[C@H]2O[C@H](CO)[C@@H](O)[C@H](O)[C@H]2O)[C@H](O)[C@H]1O [Dodecyl β-D-maltoside],CMC,[1],0.17 mM
Sucrose dodecanoate,CMC,[1],0.3 mM
benzalkonium chloride [BAC],Saccharine transport time and proinflammatory indicators in vivo,nasal mucosa,did not alter saccharine transport time
same,Damage to the nasal mucosa,nasal mucosa; in vivo,no significant damage to the nasal mucosa
same,Nasal irritation,nasal mucosa; in vivo,no discernible negative effects
same,Nasal mucosal function,nasal mucosa; in vivo,no detectable effect on the nasal mucosal function
same,Effect on isolated nasal cilia in vitro,isolated nasal cilia,ciliotoxic
CCCCCCCCCCCCCO[C@@H]1O[C@H](CO)[C@@H](OC2OC(CO)C(O)C(O)C2O)[C@H](O)[C@H]1O (stereo in doubt) [Tridecyl maltoside],CMC,[1],0.03 mM
D-ala^1-Peptide T-amide [DAPTA],Concentration that blocks envelop (gp120) binding and inhibits viral infectivity,envelop (gp120) binding,10 pM
same,Dissociation of aggregates on warming,"[2]; 5 mg/mL in 0.45% NaCl, warmed to 37° C. for about 17-24 hours with shaking",reversibly dissociate
same,Time to observable fibril formation,"[2]; 0.9% saline (10 mg/mL), room or ambient temperature",≤ 48 h
same,Time to observable fibrillization,"[2]; 0.9% saline (10 mg/mL), stored at 4° C.",less than 1 hour
same,"Effect of TFE on preformed aggregates, by EM","[2]; aggregates formed in distilled water, TFE added to 80%",disrupted
same,Time to form aggregates,[2]; 4 deg. C.,≤ 2 h
same,Time to form aggregates,[2]; room temperature,24 to 170 h
same,Percent Reduction in HIV Infection,"HIV BaL [3]; 0.1 nM DAPTA, TFE Concentration 0 %, shaken 24 hrs at 37° C., stored in water about 3 days",0 ± 2%
same,Percent Reduction in HIV Infection,"HIV BaL [3]; 0.1 nM DAPTA, TFE Concentration 20 %, shaken 24 hrs at 37° C., stored in water about 3 days",0 ± 3%
same,Percent Reduction in HIV Infection,"HIV BaL [3]; 0.1 nM DAPTA, TFE Concentration 40 %, shaken 24 hrs at 37° C., stored in water about 3 days",0 ± 2%
same,Percent Reduction in HIV Infection,"HIV BaL [3]; 0.1 nM DAPTA, TFE Concentration 60 %, shaken 24 hrs at 37° C., stored in water about 3 days",20 ± 4%
same,Percent Reduction in HIV Infection,"HIV BaL [3]; 0.1 nM DAPTA, TFE Concentration 80 %, shaken 24 hrs at 37° C., stored in water about 3 days",100 ± 5%
same,Percent Reduction in HIV Infection,"HIV BaL [3]; 0.1 nM DAPTA, TFE Concentration 100 %, shaken 24 hrs at 37° C., stored in water about 3 days",98 ± 3%
same,Percent Reduction in HIV Infection,"HIV BaL [3]; 80% TFE, shaken about 24 hours at 37 ° C., in water about three days",100 ± 5%
same,Percent Reduction in HIV Infection,"HIV BaL [3]; about 80% TFE/water, shaken 24 hrs at 37 degrees, in water about three days",100 ± 3%
same,Percent Reduction in HIV Infection,"HIV BaL [4]; 80% TFE, shaken about 24 hours at Room Temp.",70 ± 6%
same,Percent Reduction in HIV Infection,"HIV BaL [4]; about 80% TFE/water, shaken 12 hrs at 37 degrees",70 ± 4%
same,Percent Reduction in HIV Infection,"HIV BaL [4]; about 80% TFE/water, shaken 48 hrs at 37 degrees",100 ± 3%
same,Neuropsychological performance versus placebo,"people with AIDS; 2 mg three times daily intranasally, at least four months (Heseltine et al., 1998)",no difference in neuropsychological performance
same,Patients with improved neuro-psychological performance,people with AIDS; high dose (15 mg daily),4/5
same,Persistently infected monocyte reservoir,"people with AIDS; human, in vivo",greatly reduced or flushed to undetectable levels in all patients
same,Patients with improved neuro-psychological performance,people with AIDS; low dose (1.5 mg daily),1/4
same,Lower limb pain in HIV-related peripheral neuropathy,"people with AIDS; nine individuals, subcutaneously 10 mg daily (MacFadden and Doob 1991)",complete or subjectively significant resolution of lower limb pain
same,Adverse drug effects,"people with AIDS; nine individuals, subcutaneously (MacFadden and Doob 1991)",No adverse drug effects were noted
same,Cognitive and neuromotor function versus controls,"people with AIDS; phase I, 0.1 to 3.2 mg/kg/day intravenously, moderate impairment (Bridge et al. 1989)",Cognitive and neuromotor function improved
same,Painful peripheral neuropathy versus placebo,"people with AIDS; phase II double-blind, 6 mg/day for 12 weeks (Simpson et al. 1996)",no statistically significant differences
same,Time to substantial loss of activity (HIV uptake inhibition in vitro),HIV; 0.1 mM solution in water at 4° C.,about 6 weeks
same,Activity after storage (inhibition of HIV infectivity in vitro),HIV; stored in TFE between 60% and 100% versus water,retained more activity
CCCCCCCCO[C@@H]1O[C@H](CO)[C@@H](O[C@H]2O[C@H](CO)[C@@H](O)[C@H](O)[C@H]2O)[C@H](O)[C@H]1O [Octyl maltoside],CMC,[1],19.5 mM
CCCCCCCCCCO[C@@H]1O[C@H](CO)[C@@H](O[C@H]2O[C@H](CO)[C@@H](O)[C@H](O)[C@H]2O)[C@H](O)[C@H]1O [Decyl maltoside],CMC,[1],1.8 mM
CCCCCCCCCCCCCCO[C@@H]1O[C@H](CO)[C@@H](O[C@@H]2O[C@@H](CO)[C@H](O)[C@@H](O)[C@@H]2O)[C@H](O)[C@H]1O (stereo in doubt) [Tetradecyl maltoside],CMC,[1],0.01 mM
B1,Aggregation as increase in light scatter,[5],much larger increase in light scatter
same,"Stabilization by 0.2% Dodecyl maltoside, in words",[5]; light scatter at 500 nm,greatest stabilization effect
